Experimental findings from patent publication US8791132B2, “Compounds and methods for treatment of hypertension” (Medivation Technologies, Inc., priority 2011, dated 2014) are described below.

Assay [1] concerns SH-SY5Y cells over-expressing α-syn. The experiment in a line: Cell viability (MTS reduction) in SH-SY5Y cells over-expressing α-synuclein. The note with it: Homo sapiens, 336 h, α-syn over-expression (−dox), compounds at 0.1 nM, +dox control = 100, 14 days, read-out: Relative cell viability protection. The assay is classed as cell-based. The procedure: Cell Culture. SH-SY5Y cells stably transfected with a doxycyline-inducible wild-type α-synuclein (α-syn) gene along with control SH-SY5Y cells over-expressing the β-galactosidase (β-gal) gene (a gift from L. Stefanis, Division of Basic Neurosciences, Biomedical Research Foundation of the Academy of Athens, Athens, Greece) are cultured as described by Vekrellis et al. (Vekrellis K, Xilouri M, Emmanouilidou E, Stefanis L. (2009). Inducible over-expression of α-syn in human neuronal cells leads to caspase-dependent non-apoptotic death. J Neurochem 109, 1348-1362). In accordance with this method, cells are cultured and maintained in RPMI 1640, 10% fetal bovine serum supplemented with 250 μg/mL G418 and 50 μg/mL Hygromycin B. Expression of α-syn is switched off in stock cultures with doxycycline (2 μg/mL). For experimental procedures, cells are plated at (4−8×10^4 cells/cm^2) and differentiated in absence of doxycycline and in the presence of 20 μM all-trans retinoic acid (RA) (Sigma, St Louis, Mo., USA).
Viability Assay: Cells are cultured in 96-well plates. After 24 h, cells are treated with RA and Compounds of Invention at 0.1 and 10 nM in the absence of doxycyline. Culture medium with RA and drugs is fully replaced after 7 days. Cell viability is measured by the release of lactate dehydrogenase (LDH) from necrotic cells into the culture medium and by measuring the capacity of cells to metabolize MTS tetrazolium (MTS) after 14 days in culture. LDH leakage is assessed according to the Cytotoxicity Detection KitPlus (Roche, Mannheim, Germany) and MTS reduction is assessed by the CellTiter 96® AQueous One Solution Cell Proliferation assay (Promega Corporation, Madison, Wis., USA).
Assay results for the experiments with α-syn over-expression are presented as the MTS reduction capacity (cell viability) of control cells (+dox), cells over-expressing α-syn (−dox), and cells over-expressing α-syn incubated with Compounds of the Invention at 0.1 nM (FIG. 18A) or 10 nM (FIG. 18B).
In general terms: Tetrazolium dyes change colour on reduction, which living cells bring about.

Assay [2] relates to healthy dogs. The experiment in a line: Blood pressure in healthy beagle dogs (telemetry). In kind it is in vivo, dog. The source says:
(§1) Four adult beagle dogs of both sex and weighted around 10 kg were chosen for the acute studies after a preliminary qualitative electrocardiogram/ECG, clinical pathology and physical examination. Upon arrival at the laboratory, the dogs were weighed and acclimated for a period of one week. Lab Diet certified canine diet #5007, PMI Nutrition International Inc was made available ad libitum to all dogs except during fasting periods. The dogs were surgically implanted with a pressure transducer equipped telemetry transmitter under sodium pentobarbitone anesthesia. The transmitter assembly was secured internally, the fluid-filled catheter was placed into an appropriate artery.
(§2) In the acute studies, the test compounds 3b and 5b at different doses (dosing sequences provided in Table B7 for compound 3b and Table B8 for compound 5b) was administered by oral gavage, 30 minutes prior to intravenous dexmedetomidine (5 μg/kg) challenge. Dexmedetomidine administration was enabled by prior placement of a peripheral intravenous line. The same four dogs were received all four treatments in the order noted in the table below, with at least a 3-day washout period between treatments.
In another acute study with compound 41a, the test agent was administered a dose of 6 mg/kg by oral gavage to 4 healthy dogs; and the blood pressure monitored for a period of 4 hours.
(§3) For the chronic study mode (see Table B9), the test compound 3b at 3 doses was administered by oral gavage once on day 1 and then twice/day on days 2 to 14, and finally once on day 15. The dexmedetomidine was administered on day-4 to check its effectiveness in inducing blood pressure, and once following the morning dose of compound 3b or vehicle on days 2, 7 and 14. Blood pressure and heart rate data were collected 1 h prior & 4 h post-morning dose on days 1, 2, 7, 14 and 15 to allow the appropriate data comparisons. Blood aliquots were saved at 4 h post-morning dose for exposure determination.
In both acute and chronic studies, dogs were weighed before dosing. Cardiovascular evaluations at each dose of test compound were collected with animals gently restrained in a sling. Dogs were placed in the sling at least 1 hour prior to dose administration, and after at least 30 minutes of stable baseline data collection. The dogs were monitored continuously for 3-4 hours subsequent to test compound administration and summarized in 5-minute bins. The systolic blood pressure was collected.

The test system of assay [3] is SH-SY5Y cells. The assay is described as follows: Cell viability (MTS reduction) in 4-Br-A23187-treated SH-SY5Y cells. The note with it: MTS reduction capacity; 4-Br-A23187 2 μM, 24 h; compounds at 10 nM. The assay is classed as cell-based. Here is the method: After 24 h, cells were depleted from FBS and kept in culture for 24 h before the experiment. Cells were then treated with 4-Br-A23187 (2 μM), hydrogen peroxide (300 μM) or the mitochondrial toxin rotenone (25 μM) in the presence of vehicle or Compound of the Invention for 24 h. Cell death was determined by measurements of LDH release according to the Cytotoxicity Detection KitPlus (Roche, Mannheim, Germany). Cell viability was determined by measuring the capacity of cells to metabolize MTS tetrazolium (MTS) according to the Cytotoxicity Detection KitPlus (Roche, Mannheim, Germany) and MTS reduction is assessed by the CellTiter 96® AQueous One Solution Cell Proliferation assay (Promega Corporation, Madison, Wis., USA). Compounds were screened at 10 nM, using DMSO as vehicle. Assay results for the experiments with hydrogen peroxide are presented as the LDH release (cell death) of untreated cells (control), hydrogen peroxide-treated cells (vehicle), and co-incubation of hydrogen peroxide with Compounds of the Invention treated cells normalized to the vehicle (FIG. 17A). This assay assesses the ability of the test compounds to protect against cell death that is mediated by mitochondrial dysfunction. In the assay, the calcium ionophore 4-Br-A23187 is used to challenge the cells, causing calcium levels to rise in mitochondria, which leads to depolarization and cell death. Test compounds are assessed for their ability to prevent cell death in response to challenge with 4-Br-A23187.

The test system of assay [4] is dexmedetomidine induced dogs. The experiment in a line: Dexmedetomidine (DEX) induced beagle dog model of hypertension. In kind it is in vivo.
Source text: as §1, §2, §3
In both acute and chronic studies, dogs were weighed before dosing. Cardiovascular evaluations at each dose of test compound were collected with animals gently restrained in a sling. […] The dogs were monitored continuously for 3-4 hours subsequent to test compound administration and summarized in 5-minute bins. […]

In assay [5] the test system is conscious New Zealand White rabbits. The assay is described as follows: Blood pressure in conscious rabbits. In kind it is in vivo, rabbit. Here is the method: Methods: Four adult New Zealand White rabbits of both sexes were chosen for these studies. […] To unveil peripheral effects of Compound 3b, two sets of acute studies were conducted in rabbits. […] A single intravenous bolus dose at 3 mg/kg was given and a time-course study was conducted in the second set of studies. Systolic, […], mean and […] blood pressures were recorded in both the studies. […] In a separate set of studies, Clonidine (positive control) was tested where all experimental procedures including dose-regimen were identical to that of the studies with […].

[6] abbreviates: dexmedetomidine (5 μg/kg i.v.) induced dogs, acute studies, oral gavage 30 min before challenge.

One may read the viability as a per cent measure of how many cells are alive, often set against a control. Regarding `CN1CCc2c(c3cc(Cl)ccc3n2CC(O)c2ccncc2)C1` (single isomer, unassigned) [4a], in assay [1], the viability at 0.0001 µM turned out to be 73.4%.
As for `CN1CCc2c(n(CC(O)c3ccncc3)c3ccc(Cl)cc23)C1` (single isomer, unassigned) [41a], the heart rate result in assay [2] (6 mg/kg oral gavage) was “slight decrease or neutral effect”. Also, the systolic blood pressure result in assay [2] (acute studies, oral gavage) was “robust and long lasting reduction in systolic blood pressure”.
For the molecule `Cc1ccc2c(c1)c1c(n2CC(C)(O)c2cccnc2)CCN(C)C1` (single isomer, unassigned) [5b, 1-(1,2,3,4-tetrahydro-2,8-dimethylpyrido[4,3-b]indol-5-yl)-2-(pyridin-3-yl)propan-2-ol], the “Relative cell viability protection” value in assay [3] came to 0.3748. Besides, the viability at 0.0001 µM in assay [1] stood at 76.5%. In addition, the systolic blood pressure result in assay [2] (acute studies, oral gavage) is on record as “dose-dependently reduced systolic blood pressure”; in assay [4] (setting [6]), “dose-dependently reduced systolic blood pressure”.
As for `Cc1ccc2c(c1)c1c(n2CC(O)c2ccncc2)CCNC1` (single isomer, unassigned) [39a, 2-(8-methyl-1,2,3,4-tetrahydro-pyrido[4,3-b]indol-5-yl)-1-pyridin-4-yl-ethanol], the viability at 0.0001 µM in assay [1] stood at 72.5%.
As to `Cc1ccc2c(c1)c1c(n2CC(O)c2ccncc2)CCN(C)C1` (single isomer, unassigned) [3b], the “Relative cell viability protection” value in assay [3] was 0.3673. Moreover, in assay [1], the viability at 0.0001 µM worked out at 70.8%. Further, the systolic blood pressure entry was “dose-dependently reduced systolic blood pressure” in assay [2] (acute studies, oral gavage); “dose dependently reduced systolic blood pressure” in assay [2] (chronic study, oral, day 1 and 15); “dose-dependently reduced systolic blood pressure” in assay [4] (setting [6]); “dose dependently reduced systolic blood pressure” in assay [4] (dexmedetomidine induced dogs, chronic study, oral b.i.d., day 2, 7 and 14). In assay [5] (i.v. cumulative dose-response study), the “dose that produced 80% of the maximum drop in blood pressure” value is recorded as 3 mg/kg. The heart rate result in assay [5] (i.v. cumulative dose-response study (FIG. 26, fourth panel)) is listed as “tachycardia”. For the same molecule, the “maximum arterial blood pressure drop” value in assay [5] (i.v. cumulative dose-response study, Compound 3b maximum at 10 mg/kg) is −11.6 mmHg. The “duration of arterial blood pressure effect” value in assay [5] (single i.v. bolus dose at 3 mg/kg, 3 hours data collection) was “stable from 90 to 180 minutes”. For the same molecule, the “drop in arterial blood pressure” value in assay [5] (single i.v. bolus dose at 3 mg/kg, time-course study (FIG. 27)) is around −6 mmHg.
